Data on seven substances can be found in publication PMC11098465, “A comparative analysis of peptide-delivered antisense antibiotics using diverse nucleotide mimics” (RNA, 2024).

Series [1] has as its system acpP::gfp reporter transcript. Kind of series: In vitro translation of acpP::gfp reporter (PURExpress) with western blot. Format: biochemical, Salmonella. Set-up: key to Inhibition of translation in vitro: +++: Effect strength is represented by additional (+) signs.; ++: Effect strength is represented by additional (+) signs.; Effect strength is represented by additional (+) signs. The settings on record: unconjugated ASO; for Inhibition of in vitro translation of acpP::gfp (in words): western blot of AcpP(1–17)::GFP; for Inhibition of translation in vitro: ASO:RNA 0.6:1 to 5:1, 100 nM RNA, 2 h 37°C, summary grade. On the procedure: As a next step, we used a cell-free in vitro translation system ([Popella et al. 2022]) to investigate whether ASO binding to mRNA leads to a block in protein synthesis. As a template, we used the acpP sequence spanning −40 to +51 relative to the AUG start codon fused to a gfp reporter gene (acpP::gfp). This construct was in vitro transcribed, preincubated with different ASOs at different ratios and subsequently translated in vitro. Water was used as a negative control.
For the generation of target RNA::gfp fusion constructs, we used a previously established protocol ([Popella et al. 2022]) and the oligonucleotides JVO-19760/JVO-19761 (Supplemental Table S1) to amplify the genomic region spanning nucleotides –40 to +51 relative to the translational start codon of acpP. The sense oligonucleotide was fused to a T7 promoter sequence for subsequent transcription of the final fusion construct in vitro. The antisense oligonucleotide contained a 30 nt overlapping region with gfp for subsequent fusion PCR with full-length gfp (pXG-10; JVO-19762/JVO-19763) (Supplemental Table S1). The PCR products were purified with NucleoSpin Gel and PCR Clean-up (Macherey-Nagel) according to the manufacturer's instructions, and DNA concentration was quantified with a NanoDrop spectrophotometer (A260 nm).
PCR products were used for T7 RNA polymerase-driven transcription in vitro using the MEGAscript T7 kit (Ambion/Thermo Scientific), according to the manufacturer's instructions and analogous to our previous publication ([Popella et al. 2022]). The concentration of the RNA solution was quantified with Qubit (Fisher Scientific), and the expected product size and RNA integrity were verified on a 6% PAA, 7 M urea gel.
For in vitro translation of target RNA::gfp fusion constructs, the PURExpress In Vitro Protein Synthesis Kit (New England Biolabs, E6800L) was used as described previously ([Popella et al. 2022]). Briefly, the final volume of each in vitro translation reaction was set to 10 µL. One microliter of different concentrations of ASOs ranging from 10 to 0.625 µM was added to 1 µL of in vitro transcribed heat-denatured RNA (1 µM) to adjust the final RNA concentration to 100 nM. The mixtures were preincubated at 37°C for 5 min. Then 4 µL of Solution A and 3 µL of Solution B were added to the preannealed mixtures. After 2 h at 37°C, protein samples were denatured in 1× reducing protein loading buffer (62.6 mM Tris–HCl pH 6.8, 2% SDS, 0.1 mg/mL bromphenol blue, 15.4 mg/mL DTT, 10% glycerol) at 95°C for 5 min.
To visualize in vitro translated proteins, samples were separated on SDS-PAA (12% PAA) gels, with subsequent semi-dry western blot transfer on nitrocellulose membranes. Membranes were blocked with 10% skim milk (in 1× TBS-T) for 1 h and probed with anti-GFP antibody (1:1000; Sigma-Aldrich) in 5% skim milk (in 1× TBS-T) overnight at 4°C. After washing in 1× TBS-T and incubation with an HRP-conjugated secondary antibody (1:5000; Thermo Scientific) in 1× TBS-T, the membrane was incubated with a developing solution kit (Amersham ECL Select Western Blotting Detection Reagent), and protein levels were detected using an ImageQuant LAS 500 (GE Healthcare Life Sciences). Images were processed and band intensities quantified using ImageJ. Protein bands were normalized to the water control.

The next series relates to Salmonella. Put plainly: Salmonella growth assay (MIC). Format: cell-based, Salmonella enterica serovar Typhimurium strain SL1344. The settings on record: for Antibacterial activity (MIC): ASO conjugated to the KFF carrier peptide, ~10^5 cfu/mL in noncation-adjusted MHB, 37°C, OD600, highest concentration 10 µM; for Antibacterial activity (MIC) / Effect of KFF-ASO conjugates on Salmonella growth (in words): 24 h; for Effect of KFF-ASO conjugates on Salmonella growth (in words): up to 10 µM; for Effect of KFF-ASO conjugates on Salmonella growth (in words) / Bactericidal concentration: KFF conjugates; for Bactericidal concentration: spotting of ASO-treated bacterial samples at 24 h. On the procedure: Next, we sought to compare the antibacterial efficacy of the ASOs upon delivery into bacterial cells with a KFF carrier peptide. Therefore, we measured the growth kinetics of Salmonella in the presence of the ASOs for 24 h (Fig. 4). Because we have previously shown that the KFF peptide has a minimum inhibitory concentration (MIC) of >10 µM ([Popella et al. 2021]), we choose 10 µM as a cutoff point in our experiments. […] Spotting of the ASO-treated bacterial samples at 24 h confirmed that PMO and PNA were bactericidal at 10 and 1.25 µM, respectively (Supplemental Fig. S6B).
An overnight bacterial cell culture was diluted 1:100 in fresh MHB and grown to OD600 0.5. The culture was then diluted to ∼10^5 cfu/mL in noncation-adjusted MHB. Subsequently, 190 µL bacterial solution was dispensed into a 96-well plate (Thermo Fisher Scientific) along with 10 µL of a 200 µM solution of the ASOs. Growth was monitored by measuring the OD at 600 nm every 20 min in a Synergy H1 plate reader (Biotek) with continuous double-orbital shaking (237 cpm) at 37°C for 24 h.

On to “DNA-PTO: phosphorothioate-modified DNA 10mer ASO, sequence CTCATACTCT, targeting acpP −5 to +5 (DNA, all phosphorothioate, methylation of C not given here)”, for which the “Inhibition of in vitro translation of acpP::gfp (in words)” value (“Inhibition … (in words)” for short) in series [1] was “did not inhibit protein synthesis”. Further, in the series on Salmonella, the “Antibacterial activity (MIC)” value is reported as greater than 10 µM; the “Effect of KFF-ASO conjugates on Salmonella growth (in words)” value (from here on “Effect of KFF-ASO conjugates”) is “slight growth retardation was observed at 5 and 10 µM”.
As to “PNA: peptide nucleic acid 10mer ASO, sequence CTCATACTCT, targeting acpP −5 to +5 (all peptide nucleic acid (PNA))”, in series [1], the “Inhibition of translation in vitro” value is “+++” and the “Inhibition … (in words)” value is on record as “substantially blocking in vitro translation of acpP::gfp at 1.25× molar excess”. Moreover, in the series with Salmonella, the “Antibacterial activity (MIC)” value is 1.25 µM and the Bactericidal concentration was 1.25 µM.
Regarding “LNA: 2′–4′-locked RNA 10mer ASO, sequence CTCATACTCT, targeting acpP −5 to +5 (all LNA, backbone and methylation of C not given here)”, in series [1], the “Inhibition of translation in vitro” value is reported as “+++” and the “Inhibition … (in words)” value is reported as “substantially blocking in vitro translation of acpP::gfp at 1.25× molar excess”. Also, in the series on Salmonella, the “Antibacterial activity (MIC)” value is listed as greater than 10 µM; the “Effect of KFF-ASO conjugates” value is “slight growth retardation was observed at 5 and 10 µM”.
As to “RNA-F: 2′-fluorinated RNA 10mer ASO, sequence CTCATACTCT, targeting acpP −5 to +5 (all 2'-fluoro, backbone and T or U not given here)”, in series [1], the “Inhibition of translation in vitro” value is “++” and the “Inhibition … (in words)” value was “less pronounced”. Also, in the series with Salmonella, the “Antibacterial activity (MIC)” value was greater than 10 µM; the “Effect of KFF-ASO conjugates” value was “slight growth retardation was observed at 5 and 10 µM”.
Take “PMO: phosphorodiamidate morpholino 10mer ASO, sequence CTCATACTCT, targeting acpP −5 to +5 (all phosphorodiamidate morpholino (PMO))”: in series [1], the “Inhibition of translation in vitro” value was “++” and the “Inhibition … (in words)” value was “less pronounced”. Moreover, in the series on Salmonella, the “Antibacterial activity (MIC)” value was found to be 10 µM and the Bactericidal concentration is 10 µM.
As to “RNA-MOE: 2′-methoxyethylated RNA 10mer ASO, sequence CTCATACTCT, targeting acpP −5 to +5 (all 2'-MOE, backbone and methylation of C not given here)”, in series [1], the “Inhibition of translation in vitro” value was “+++” and the “Inhibition … (in words)” value is reported as “substantially blocking in vitro translation of acpP::gfp at 1.25× molar excess”. In addition, in the series on Salmonella, the “Antibacterial activity (MIC)” value is given as greater than 10 µM; the “Effect of KFF-ASO conjugates” value is “slight growth retardation was observed at 5 and 10 µM”.
For the substance “RNA-OMe: 2′-methylated RNA 10mer ASO, sequence CTCATACTCT, targeting acpP −5 to +5 (all 2'-O-methyl, backbone and T or U not given here)”, the “Inhibition … (in words)” value in series [1] was “less pronounced”. Further, in the series with Salmonella, the “Antibacterial activity (MIC)” value was greater than 10 µM and the “Effect of KFF-ASO conjugates” value is “lacked any antibacterial activity”.
